Where two headings read alike, the source gives them in different places.
Tests used:
[1] = tested on: adrenal cortex; assay: Adrenal damage
[2] = Survival after a single feeding; conditions: 30 mg, animals invariably succumbed
[3] = Solubility of hydrocarbons in sesame oil; conditions: room temperature; approximately
[4] = tested on: menadione reductase (EC 1.6.5.2); assay: Induction of menadione reductase in tissues; assay type: in vivo, rat
[5] = tested on: adrenal cortex; assay: Induced protection of adrenal against 7,12-DMBA; assay type: in vivo, rat
[6] = tested on: adrenal cortex; conditions: cited from earlier work
[7] = tested on: deoxyribonucleic acid of adrenal; assay type: in vivo, rat; conditions: Table VII
[8] = tested on: adrenal cortex; conditions: single preliminary feeding; cited from earlier work
[9] = tested on: acid-insoluble residue (DNA) of liver; conditions: 7,12-DMBA 5 mg i.v. at -4 hours; TdRH3 at 0 hours; liver at +20 hours; Fig. 3
[10] = 7,12-DMBA oral 10 mg at -48 hrs
[11] = 7,12-DMBA oral 10 mg at -48 hrs, 7,12-DMBA 5 mg i.v. at -4 hrs

## CN(C)c1ccc(C=Cc2ccccc2)cc1 [4-dimethylaminostilbene]
[1]; feeding, 30 mg
  Adrenal necrosis: did not induce necrosis
[2]
  Time to death: ≤ 5 days

## Cc1c2ccccc2c(C)c2c1ccc1ccccc12 [7,12-DMBA, 7,12-Dimethylbenz[a]anthracene]
[3]
  Solubility w/v in sesame oil: ~10 per cent
[4]; 7,12-DMBA 5 mg i.v. at 0 hours, lipide at 24 hours, measured at 48 hours, Fig. 5
  Hepatic menadione reductase: 269 per cent of controls
[4]; 7,12-DMBA 5 mg intravenous, Fig. 3
  Time of first rise in hepatic menadione reductase: 3 h
[4]; 7,12-DMBA 5 mg oral, Fig. 3
  Time of first elevation in hepatic menadione reductase: 8 h
[5]; 1 mg by intravenous injection on day -1, group of 8
  Rats protected: 5
[5]; 0.5 to 1.5 mg injected intravenously as protector on day -1
  Adrenal protection: no amount was found which induced complete protection
[5]; single feeding 2 mg to 10 mg, 1 day prior to 7,12-DMBA 5 mg i.v.
  Adrenal protection: protected adrenals completely
[1]; 5 mg given by vein
  Adrenal hemorrhage: invariably caused adrenal hemorrhage
[1]; Table I, 7,12-DMBA 30 mg/kg i.v., age 30 days, adrenals 72 hours later, 8 rats
  Adrenal apoplexy: 0
[1]; Table I, 7,12-DMBA 30 mg/kg i.v., age 35 days, 8 rats
  Adrenal apoplexy: 6/8
[1]; Table I, 7,12-DMBA 30 mg/kg i.v., age 40 days, 8 rats
  Adrenal apoplexy: 8/8
[1]; Table I, 7,12-DMBA 30 mg/kg i.v., age 42 days, 8 rats
  Adrenal apoplexy: 8/8
[1]; Table I, 7,12-DMBA 30 mg/kg i.v., age 45 days, 8 rats
  Adrenal apoplexy: 8/8
[1]; feeding of 5 mg
  Adrenal apoplexy: failed to induce apoplexy
[6]; intravenous
  Intravenous amount that itself causes adrenal necrosis: ≥ 2 mg
[6]; single feeding 30 mg, adult rats
  Adrenal apoplexy: induces adrenal apoplexy in all adult rats
[7]; 7,12-DMBA 5 mg i.v. at -4 hrs
  Tritium content of adrenal, per cent of controls: 40 per cent
[7]; [10]
  Tritium content of adrenal: 0.120 ~clgm
  Tritium content of adrenal, per cent of controls: 91 per cent
[7]; [11]
  Tritium content of adrenal: 0.064 ~clgm
  Tritium content of adrenal, per cent of controls: 48 per cent
[8]
  Protection of adrenal from damage by a large dose of 7,12-DMBA: protects
[9]
  Incorporation of tritium into acid-insoluble residue of liver: 56 per cent of control values
